Measured values reported in patent US10905729B1, “Formulations and methods for wound treatment” (Sorush, LLC, priority 2011, dated 2021).

Assay: Chemical analysis of the extract for the antibiotics (HPLC-MS / MS)
Format: physicochemical
Conditions: added at 0.003% each; analysed about two weeks after formation of the extract
Experimental: 10 grams of dried Lawsonia inermis leaves (www.ETSY.com) were placed in a beaker and 100 ml of distilled water were added. The mixture was stirred for 2 hours at room temperature to obtain an aqueous Lawsonia inermis extract designated as a 10% w/w or w/v extract. […] The Lawsonia inermis extract was analyzed for antibiotic activity and for the presence of the antibiotics about two weeks after formation of the extract.
A chemical analysis was performed on the extract. […] Polymyxin B analysis was performed on a Thermo Finnigan LCQ MS.

| Substance | antibiotic not detected in the extract at a level of [nanograms/ml] |
| --- | --- |
| Gentamicin [Gentamycin] | < 15.0 |
| Polymyxin B | < 960 |
